# Source: patent US11814392B2, “Chromenopyridine-based compounds and methods of making and use thereof” (Rosalind Franklin University of Medicine and Science, priority 2020, dated 2023)
# Legend:
# [1] = system: HS578T; test: NCI 60 five-dose screening, HS578T; format: cell-based, human; conditions: HS578T (Breast Cancer), 48 h
# [2] = system: MDA-MB-468; test: NCI 60 five-dose screening, MDA-MB-468; format: cell-based, human
# [3] = system: EKVX; test: NCI 60 five-dose screening, EKVX; conditions: 48 h
# Experimental: (§1) The National Cancer Institute's Developmental Therapeutic preclinical 60 human cancer cell lines were used for an in vitro screen. […] The one-dose and five-dose experiments were conducted according to standard NCI protocols.
# (§2) The human tumor cell lines of the cancer screening panel are grown in RPMI 1640 medium containing 5% fetal bovine serum and 2 mM L-glutamine. For a typical screening experiment, cells are inoculated into 96 well microtiter plates in 100 μL at plating densities ranging from 5,000 to 40,000 cells/well depending on the doubling time of individual cell lines. After cell inoculation, the microtiter plates are incubated at 37° C., 5% CO2, 95% air and 100% relative humidity for 24 h prior to addition of experimental drugs.
# (§3) After 24 h, two plates of each cell line are fixed in situ with TCA, to represent a measurement of the cell population for each cell line at the time of drug addition (Tz). […]
# (§4) Following drug addition, the plates are incubated for an additional 48 h at 37° C., 5% CO2, 95% air, and 100% relative humidity. […] Bound stain is subsequently solubilized with 10 mM trizma base, and the absorbance is read on an automated plate reader at a wavelength of 515 nm. […] Using the seven absorbance measurements [time zero, (Tz), control growth, (C), and test growth in the presence of drug at the five concentration levels (Ti)], the percentage growth is calculated at each of the drug concentrations levels. Percentage growth inhibition is calculated as: [(Ti−Tz)/(C−Tz)]×100 for concentrations for which Ti>/=Tz [(Ti−Tz)/Tz]×100 for concentrations for which Ti<Tz.
# (§5) Three dose response parameters are calculated for each experimental agent. […] The drug concentration resulting in total growth inhibition (TGI) is calculated from Ti=Tz. […] Values are calculated for each of these three parameters if the level of activity is reached; however, if the effect is not reached or is exceeded, the value for that parameter is expressed as greater or less than the maximum or minimum concentration tested.
# [4] = system: HT29; test: NCI 60 five-dose screening, HT29
# Experimental: as §1, §2, §3, §4, §5
# [5] = system: K-562; test: NCI 60 five-dose screening, K-562; conditions: Homo sapiens, K562, 48 h
# Experimental: as §1
# The human tumor cell lines of the cancer screening panel are grown in RPMI 1640 medium containing 5% fetal bovine serum and 2 mM L-glutamine. For a typical screening experiment, cells are inoculated into 96 well microtiter plates in 100 μL at plating densities ranging from 5,000 to 40,000 cells/well depending on the doubling time of individual cell lines. […]
# as §4
# Three dose response parameters are calculated for each experimental agent. […]
# [6] = system: MCF7; test: NCI 60 five-dose screening, MCF7
# Experimental: as §1, §2, §3, §4, §5
# [7] = system: T-47D; test: NCI 60 five-dose screening, T-47D; conditions: 48 h
# Experimental: as §1, §2, §3, §4, §5
# [8] = system: HOP-62; test: NCI 60 five-dose screening, HOP-62
# Experimental: (§6) The one-dose and five-dose experiments were conducted according to standard NCI protocols.
# as §2
# (§7) After 24 h, two plates of each cell line are fixed in situ with TCA, to represent a measurement of the cell population for each cell line at the time of drug addition (Tz). Experimental drugs are solubilized in dimethyl sulfoxide at 400-fold the desired final maximum test concentration and stored frozen prior to use. […]
# as §4, §5
# [9] = system: HCT-15; test: NCI 60 five-dose screening, HCT-15
# Experimental: as §1, §2, §3, §4, §5
# [10] = system: SW-620; test: NCI 60 five-dose screening, SW-620
# Experimental: as §1, §2, §3, §4, §5
# [11] = system: SF-268; test: NCI 60 five-dose screening, SF-268
# Experimental: as §1, §2, §3, §4, §5
# [12] = system: SF-295; test: NCI 60 five-dose screening, SF-295
# Experimental: as §1, §2, §3, §4, §5
# [13] = system: NCI-H23; test: NCI 60 five-dose screening, NCI-H23
# Experimental: as §6, §2, §7, §4, §5
# [14] = system: HCT-116; test: NCI 60 five-dose screening, HCT-116
# Experimental: as §1, §2, §3, §4, §5
# [15] = system: UACC-62; test: NCI 60 five-dose screening, UACC-62
# Experimental: as §1, §2, §3, §4, §5
# [16] = system: OVCAR-4; test: NCI 60 five-dose screening, OVCAR-4
# Experimental: as §1, §2, §3, §4, §5
# [17] = system: SK-OV-3; test: NCI 60 five-dose screening, SK-OV-3
# Experimental: as §6, §2, §7, §4, §5
# [18] = system: NCI-H226; test: NCI 60 five-dose screening, NCI-H226
# Experimental: as §6, §2, §7, §4, §5
# [19] = system: NCI-H522; test: NCI 60 five-dose screening, NCI-H522
# Experimental: as §1, §2, §3, §4, §5
# [20] = system: HCC-2998; test: NCI 60 five-dose screening, HCC-2998
# Experimental: as §1, §2, §3, §4, §5
# [21] = system: SK-MEL-5; test: NCI 60 five-dose screening, SK-MEL-5
# Experimental: as §1, §2, §3, §4, §5
# [22] = system: UACC-257; test: NCI 60 five-dose screening, UACC-257
# Experimental: as §1, §2, §3, §4, §5
# [23] = system: RPMI-8226; test: NCI 60 five-dose screening, RPMI-8226
# Experimental: as §1, §2, §3, §4, §5
# [24] = system: MDA-MB-435; test: NCI 60 five-dose screening, MDA-MB-435
# Experimental: as §1, §2, §3, §4, §5
# [25] = system: MDA-MB-231/ATCC; test: NCI 60 five-dose screening, MDA-MB-231/ATCC
# Experimental: as §1, §2, §3, §4, §5
structure (smiles),measurement,setting,value
"COc1ccc(SC2c3cc(OC)c(OC)cc3Oc3nc(N)c(C#N)c(N)c32)cc1 (stereo not shown) [Compound 1, 2,4-diamino-7,8-dimethoxy-5-((4-methoxyphenyl)thio)-5H-chromeno[2,3-b]pyridine-3-carbonitrile]",TGI,[1],4160 nM
same,GI50,"[1]; Homo sapiens, Hs-578T",1800 nM
same,CC50,"[2]; Homo sapiens, MDA-MB-468, 48 h, read-out: LC50",5620 nM
same,GI50,"[2]; Homo sapiens, MDA-MB-468 (Breast Cancer), five-dose, 48 h",320 nM
same,TGI,"[2]; MDA-MB-468 (Breast Cancer), five-dose, 48 h",1530 nM
same,TGI,"[3]; EKVX (Non-small cell Lung), five-dose",3340 nM
same,GI50,"[3]; Homo sapiens, EKVX",1740 nM
same,CC50,"[3]; Homo sapiens, EKVX, read-out: LC50",6420 nM
same,TGI,"[4]; HT29 (Colon Cancer), five-dose, 48 h",5040 nM
same,GI50,"[4]; Homo sapiens, HT-29, 48 h",2160 nM
same,CC50,"[4]; Homo sapiens, HT-29, 48 h, read-out: LC50",> 100000 nM
same,GI50,[5],440 nM
same,CC50,[5]; read-out: LC50,> 100000 nM
same,GI50,"[6]; Homo sapiens, MCF7, 48 h",450 nM
same,CC50,"[6]; Homo sapiens, MCF7, 48 h, read-out: LC50",8470 nM
same,TGI,"[6]; MCF7 (Breast Cancer), five-dose, 48 h",2100 nM
same,GI50,"[7]; Homo sapiens, T47D",1300 nM
same,CC50,"[7]; Homo sapiens, T47D, read-out: LC50",8430 nM
same,TGI,"[7]; T-47D (Breast Cancer), five-dose",3310 nM
same,TGI,"[8]; HOP-62 (Non-small cell Lung), five-dose, 48 h",3090 nM
same,GI50,"[8]; Homo sapiens, HOP-62, 48 h",1700 nM
same,CC50,"[8]; Homo sapiens, HOP-62, 48 h, read-out: LC50",5610 nM
same,TGI,"[9]; HCT-15 (Colon Cancer), five-dose, 48 h",2230 nM
same,GI50,"[9]; Homo sapiens, HCT-15, 48 h",970 nM
same,CC50,"[9]; Homo sapiens, HCT-15, 48 h, read-out: LC50",5020 nM
same,GI50,"[10]; Homo sapiens, SW-620, 48 h",1240 nM
same,CC50,"[10]; Homo sapiens, SW-620, 48 h, read-out: LC50",8290 nM
same,TGI,"[10]; SW-620 (Colon Cancer), five-dose, 48 h",3200 nM
same,GI50,"[11]; Homo sapiens, SF-268, 48 h",1550 nM
same,CC50,"[11]; Homo sapiens, SF-268, 48 h, read-out: LC50",6050 nM
same,TGI,"[11]; SF-268 (CNS Cancer), five-dose, 48 h",3070 nM
same,GI50,"[12]; Homo sapiens, SF-295, 48 h",1600 nM
same,CC50,"[12]; Homo sapiens, SF-295, 48 h, read-out: LC50",5480 nM
same,TGI,"[12]; SF-295 (CNS Cancer), five-dose, 48 h",2960 nM
same,GI50,"[13]; Homo sapiens, NCI-H23, 48 h",1450 nM
same,CC50,"[13]; Homo sapiens, NCI-H23, 48 h, read-out: LC50",6250 nM
same,TGI,"[13]; NCI-H23 (Non-small cell Lung), five-dose, 48 h",3010 nM
same,TGI,"[14]; HCT-116 (Colon Cancer), five-dose, 48 h",2160 nM
same,GI50,"[14]; Homo sapiens, HCT-116, 48 h",680 nM
same,CC50,"[14]; Homo sapiens, HCT-116, 48 h, read-out: LC50",5340 nM
same,GI50,"[15]; Homo sapiens, UACC-62, 48 h",440 nM
same,CC50,"[15]; Homo sapiens, UACC-62, 48 h, read-out: LC50",4300 nM
same,TGI,"[15]; UACC-62 (Melanoma), five-dose, 48 h",1730 nM
same,GI50,"[16]; Homo sapiens, OVCAR-4, 48 h",1330 nM
same,CC50,"[16]; Homo sapiens, OVCAR-4, 48 h, read-out: LC50",5590 nM
same,TGI,"[16]; OVCAR-4 (Ovarian Cancer), five-dose, 48 h",2730 nM
same,GI50,"[17]; Homo sapiens, SK-OV-3, 48 h",1810 nM
same,CC50,"[17]; Homo sapiens, SK-OV-3, 48 h, read-out: LC50",5660 nM
same,TGI,"[17]; SK-OV-3 (Ovarian Cancer), five-dose, 48 h",3200 nM
same,GI50,"[18]; Homo sapiens, NCI-H226, 48 h",1370 nM
same,CC50,"[18]; Homo sapiens, NCI-H226, 48 h, read-out: LC50",5230 nM
same,TGI,"[18]; NCI-H226 (Non-small cell Lung), five-dose, 48 h",2680 nM
same,GI50,"[19]; Homo sapiens, NCI-H522, 48 h",1370 nM
same,CC50,"[19]; Homo sapiens, NCI-H522, 48 h, read-out: LC50",5600 nM
same,TGI,"[19]; NCI-H522 (Non-small cell Lung), five-dose, 48 h",2770 nM
same,TGI,"[20]; HCC-2998 (Colon Cancer), five-dose, 48 h",3120 nM
same,GI50,"[20]; Homo sapiens, HCC 2998, 48 h",1720 nM
same,CC50,"[20]; Homo sapiens, HCC 2998, 48 h, read-out: LC50",5670 nM
same,GI50,"[21]; Homo sapiens, SK-MEL-5, 48 h",1500 nM
same,CC50,"[21]; Homo sapiens, SK-MEL-5, 48 h, read-out: LC50",5330 nM
same,TGI,"[21]; SK-MEL-5 (Melanoma), five-dose, 48 h",2820 nM
same,GI50,"[22]; Homo sapiens, UACC-257, 48 h",1870 nM
same,CC50,"[22]; Homo sapiens, UACC-257, 48 h, read-out: LC50",5900 nM
same,TGI,"[22]; UACC-257 (Melanoma), five-dose, 48 h",3320 nM
same,GI50,"[23]; Homo sapiens, RPMI-8226, 48 h",350 nM
same,CC50,"[23]; Homo sapiens, RPMI-8226, 48 h, read-out: LC50",> 100000 nM
same,TGI,"[23]; RPMI-8226 (Leukemia), five-dose, 48 h",1810 nM
same,GI50,"[24]; Homo sapiens, MDA-MB-435, 48 h",1500 nM
same,CC50,"[24]; Homo sapiens, MDA-MB-435, 48 h, read-out: LC50",5700 nM
same,TGI,"[24]; MDA-MB-435 (Melanoma), five-dose, 48 h",2920 nM
same,GI50,"[25]; Homo sapiens, MDA-MB-231, 48 h",1430 nM
same,CC50,"[25]; Homo sapiens, MDA-MB-231, 48 h, read-out: LC50",5510 nM
same,TGI,"[25]; MDA-MB-231/ATCC (Breast Cancer), five-dose, 48 h",2810 nM
